{"source": "patent US5399587A", "about": "“Biologically active compounds” (priority 1993, dated 1995)", "key": {"[1]": {"biological_target": "T1, bovine aortic sarcolemma membrane vesicles ([^125 I]ChTX binding) (Bos taurus, UniProt Q28204)", "T1 construct": "bovine aortic sarcolemma membrane vesicles; from tissue; host or cells: bovine aorta (smooth muscle) sarcolemma membrane vesicles", "T1 sequence (Q28204 whole entry)": "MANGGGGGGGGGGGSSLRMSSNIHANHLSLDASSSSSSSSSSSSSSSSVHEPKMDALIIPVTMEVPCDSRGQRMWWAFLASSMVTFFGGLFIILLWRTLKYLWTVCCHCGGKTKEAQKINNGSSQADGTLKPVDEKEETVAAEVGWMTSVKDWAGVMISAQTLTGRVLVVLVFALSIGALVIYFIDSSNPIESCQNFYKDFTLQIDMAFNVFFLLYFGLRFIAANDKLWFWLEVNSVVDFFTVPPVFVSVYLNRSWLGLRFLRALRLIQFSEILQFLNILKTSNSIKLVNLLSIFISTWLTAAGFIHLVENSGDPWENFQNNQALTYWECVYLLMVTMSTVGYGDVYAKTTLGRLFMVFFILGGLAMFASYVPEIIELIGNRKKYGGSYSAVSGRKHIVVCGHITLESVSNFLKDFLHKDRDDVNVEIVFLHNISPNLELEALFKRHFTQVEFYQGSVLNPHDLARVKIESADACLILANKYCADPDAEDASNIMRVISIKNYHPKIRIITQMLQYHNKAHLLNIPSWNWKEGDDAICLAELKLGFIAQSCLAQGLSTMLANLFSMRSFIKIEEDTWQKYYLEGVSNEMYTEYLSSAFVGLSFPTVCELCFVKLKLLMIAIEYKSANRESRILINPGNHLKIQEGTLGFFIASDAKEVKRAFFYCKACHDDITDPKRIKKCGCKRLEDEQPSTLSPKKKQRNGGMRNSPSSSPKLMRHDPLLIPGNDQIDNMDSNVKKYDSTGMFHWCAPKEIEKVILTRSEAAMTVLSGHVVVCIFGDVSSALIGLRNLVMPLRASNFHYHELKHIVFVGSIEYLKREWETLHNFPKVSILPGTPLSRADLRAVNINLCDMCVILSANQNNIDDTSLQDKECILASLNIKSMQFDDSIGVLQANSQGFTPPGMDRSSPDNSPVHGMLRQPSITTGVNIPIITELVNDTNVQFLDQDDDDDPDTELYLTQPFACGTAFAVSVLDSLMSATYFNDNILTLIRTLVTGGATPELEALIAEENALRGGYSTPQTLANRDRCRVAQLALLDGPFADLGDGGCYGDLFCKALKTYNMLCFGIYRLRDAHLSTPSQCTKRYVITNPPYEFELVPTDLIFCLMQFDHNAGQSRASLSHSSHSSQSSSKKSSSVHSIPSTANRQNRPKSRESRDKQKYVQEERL", "test": "[^125 I]ChTX (Charybdotoxin) binding to bovine aortic sarcolemma membrane vesicles", "experimental": "The interaction of [^125 I]ChTX (Charybdotoxin) with bovine aortic sarcolemma membrane vesicles was determined under conditions as described in Vazquez et al., 1989, J. Biol. Chem. 264, 20902-20909. Briefly, sarcolemma membrane vesicles were incubated in 12×75 polystyrene robes with ca. 25 pM [^125 I]ChTX (2200 Ci/mmol), in the absence or presence of test compound, in a media consisting of 20 mM NaCl, 20 mM Tris-HCl pH 7.4, 0.1% bovine serum albumin, 0.1% digitonin. Nonspecific binding was determined in the presence of 10 nM ChTX. Incubations were carried out at room temperature until ligand binding equilibrium is achieved at ca. 90 min. At the end of the incubation period, samples were diluted with 4 mL ice-cold 100 mM NaCl, 20 mM Hepes-Tris pH 7.4 and filtered through GF/C glass fiber filters that have been presoaked in 0.5% polyethylenimine. Filters were rinsed twice with 4 mL ice-cold quench solution. Radioactivity associated with filters was determined in a gamma counter. Specific binding data in the presence of each compound (difference between total binding and nonspecific binding) was assessed relative to an untreated control."}, "[2]": {"biological_target": "large-conductance calcium-activated potassium (maxi-K) channels (Bos taurus, UniProt Q28204)", "sequence (Q28204 whole entry)": "as above", "sequence (Q28067 whole entry partner)": "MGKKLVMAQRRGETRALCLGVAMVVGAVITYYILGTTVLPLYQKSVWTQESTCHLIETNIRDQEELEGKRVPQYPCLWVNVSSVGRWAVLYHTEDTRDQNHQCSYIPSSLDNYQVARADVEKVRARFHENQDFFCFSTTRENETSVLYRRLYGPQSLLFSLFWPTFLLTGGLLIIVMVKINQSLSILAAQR", "test": "Patch clamp recordings of maxi-K channel currents in excised inside-out membrane patches from cultured bovine aortic smooth muscle cells", "type": "biochemical", "conditions": "10 μM", "experimental": "Pipettes were typically filled with solutions containing (mM): 150 KCl, 10 Hepes (4-(2-hydroxyethyl)-1-piperazineethanesulfonic acid), 1 Mg, 0.01 Ca, and adjusted to pH 7.20 with 3.7 mM KOH. After forming a high resistance (>10^9 ohms) seal between the sarcolemmal membrane and the pipette, the pipette was withdrawn from the cell forming an excised inside-out membrane patch. […] An Axopatch 1C amplifier (Axon Instruments, Foster City, Calif.) with a CV-4 headstage was used to control the voltage and to measure the currents flowing across the membrane patch. The input to the headstage was connected to the pipette solution with a Ag/AgCl wire, and the amplifier ground was connected to the bath solution with a Ag/AgCl wire covered with a robe filled with agar dissolved in 0.2M KCl. Maxi-K channels were identified by their large single channel conductance (~250 pS) and sensitivity of channel open probability to membrane potential and intracellular calcium concentration.\nData was stored on a RACAL STORE 4DS FM tape recorder (Racal Recorders, Vienna, Va.) or on digital video tape using a video casette recorder after digitizing the signal with VR-10 (Instrutech Corp., Belmont N.Y.) PCM video encoder. The signal was also recorded on chart paper with a GOULD 2400S chart recorder (Gould Inc., Cleveland Ohio). For quantitative analysis, the data was played into a DEC 11-73 (Digital Equipment Corp., Maynard, Mass.) after digitization with a DT2782-8D1A analogue to digital converter (Data Translation Inc., Marlboro, Mass.), or played into a MAC IIx or QUADRA 700 computer (Apple Computers) after digitization with an ITC-16 interface (Instrutech Corp., Belmont, N.Y.)."}, "[3]": {"system": "maxi-K channels", "test": "Maxi-K channel recordings in planar lipid bilayers with plasma membrane vesicles from bovine aortic smooth muscle", "type": "biochemical", "conditions": "10 μM, lipid bilayer", "experimental": "Planar lipid bilayers were formed from a solution of 1-palmitoyl-2-oleoylphosphatidylethanolamine (POPE) and 1-palmitoyloleoylphosphatidylcholine (POPC) in a 7/3 molar ratio dissolved in decane (50 mg/mL). This lipid solution was painted across a small hole (250 micron) separating two aqueous compartments and readily formed bilayers with capacitances of 200-250 pF. The solution on the side that the membranes were added (cis) contained (mM): 150 KCl, 10 Hepes, 0.01 Ca, 3.7 KOH, pH 7.20. The solution on the other side (trans) contained (mM): 25 KCl, 10 HEPES, 0.01 Ca, 3.7 KOH, pH 7.20. Plasma membrane vesicles purified from bovine aortic smooth muscle (Slaughter et al. 1989, Biochemistry 28, 3995-4002) were added to the cis side until channel incorporation occurred. After channel incorporation, the concentration of KCl on the trans side was increased to 150 mM to prevent further channel incorporation. The orientation of maxi-K channels after insertion into the bilayer was determined from the calcium and voltage sensitivity of the channel. […]\nData was stored on a RACAL STORE 4DS FM tape recorder (Racal Recorders, Vienna, Va.) or on digital video tape using a video casette recorder after digitizing the signal with VR-10 (Instrutech Corp., Belmont N.Y.) PCM video encoder. The signal was also recorded on chart paper with a GOULD 2400S chart recorder (Gould Inc., Cleveland Ohio). […]"}, "[4]": {"conditions": "excised inside-out patch, result in words"}, "[5]": {"conditions": "application to the intracellular side, excised inside-out patch"}}, "note": "pIC50: −log10 of the molar value. “And” between values parts separate entries of the source, which are not always exact repeats. Equal values may be shown once."}
{"smiles": "CCCCCCCC/C=C\\CCCCCCCC(=O)OCC1=CC[C@@]2(C)C[C@H](O)[C@@](O)(C(C)C)[C@@H]2CC1", "note": "[Compound A]", "values": [{"measurement": "pIC50", "setting": "[1]", "value": "6.44 and ~6.44"}, {"measurement": "inhibition of [^125 I]ChTX binding", "setting": "[1]; result in words", "value": "concentration-dependent inhibition"}, {"measurement": "time over which increase in channel open probability developed", "setting": "[2]; excised inside-out patch", "value": "5 to 10", "unit": "min"}, {"measurement": "effect on channel open probability", "setting": "[2]; [4]", "value": "clear increases in channel open probability"}, {"measurement": "reversal of increase in channel open probability on washout", "setting": "[2]; long (20-60 minutes) washout", "value": "slowly reversed after long (20-60 minutes) washout"}, {"measurement": "increase in channel open probability", "setting": "[3]; inside face of the channel", "value": 1.4, "unit": "fold"}, {"measurement": "effect on channel open probability", "setting": "[3]; outside face of the channel", "value": "did not increase channel open probability"}]}
{"smiles": "CC1=CC[C@@]2(C)C[C@H](O)[C@@](O)(C(C)C)[C@@H]2CC1", "note": "[Compound B, reference compound]", "values": [{"measurement": "pIC50", "setting": "[1]", "value": 6.70}, {"measurement": "inhibition of [^125 I]ChTX binding", "setting": "[1]; result in words", "value": "concentration-dependent inhibition"}, {"measurement": "effect on channel open probability", "setting": "[2]; [4]", "value": "no clear effect on channel open probability"}]}
{"smiles": "CCCCC/C=C\\C/C=C\\CCCCCCCC(=O)O[C@H]1C[C@]2(C)CC=C(C)CC[C@H]2[C@]1(O)C(C)C", "note": "[Compound C]", "values": [{"measurement": "effect on [^125 I]ChTX binding", "setting": "[1]; concentrations up to 100 μM, tested at 1, 10 and 100 μM", "value": "no effect on binding"}, {"measurement": "effect on channel open probability", "setting": "[2]; [5]", "value": "small decreases in channel open probability"}]}
{"smiles": "CCCCCCCC/C=C\\CCCCCCCC(=O)O[C@H]1C[C@]2(C)CC=C(C)CC[C@H]2[C@]1(O)C(C)C", "note": "[Compound D]", "values": [{"measurement": "remaining activity at 100 µM", "setting": "[1]; 1.5 h, pH 7.4, read-out: [^125 I]ChTX binding, % of that under control conditions", "value": 37, "unit": "%"}, {"measurement": "inhibition of [^125 I]ChTX binding", "setting": "[1]; at 100 μM, tested at 1, 10 and 100 μM", "value": "significant inhibition of binding"}, {"measurement": "effect on channel open probability", "setting": "[2]; [5]", "value": "small decreases in channel open probability"}]}
{"smiles": "CC(C)[C@@]1(O)[C@@H]2CCC(CO)=CC[C@@]2(C)C[C@@H]1O", "note": "[Compound E]", "values": [{"measurement": "effect on toxin binding", "setting": "[1]; concentrations from 1 nM to 100 μM", "value": "did not produce any significant effect on toxin binding"}, {"measurement": "effect on channel open probability", "setting": "[2]; [5]", "value": "no observable effect on channel open probability"}]}
